Here are results for 2 molecules from PMC8213057, “Targeting ALK2: An Open Science Approach to Developing Therapeutics for the Treatment of Diffuse Intrinsic Pontine Glioma” (Journal of Medicinal Chemistry, 2020).

The nature of one data set: in vivo. As to conditions: female, CB17 SCID, mouse, po, 10 mg/kg.
The target of the next data set is T1, DDR1 (Homo sapiens, UniProt Q08345).
T1 construct: purchased Reaction Biology Corporation
In words: 375-member kinase panel. In kind it is biochemical. As to conditions: Run 1, Run 2.

A further data set has as its target T2, ALK2/ACVR1 (Homo sapiens, UniProt Q04771).
T2 construct: purchased Reaction Biology Corporation
T2 sequence (Q04771 21-509): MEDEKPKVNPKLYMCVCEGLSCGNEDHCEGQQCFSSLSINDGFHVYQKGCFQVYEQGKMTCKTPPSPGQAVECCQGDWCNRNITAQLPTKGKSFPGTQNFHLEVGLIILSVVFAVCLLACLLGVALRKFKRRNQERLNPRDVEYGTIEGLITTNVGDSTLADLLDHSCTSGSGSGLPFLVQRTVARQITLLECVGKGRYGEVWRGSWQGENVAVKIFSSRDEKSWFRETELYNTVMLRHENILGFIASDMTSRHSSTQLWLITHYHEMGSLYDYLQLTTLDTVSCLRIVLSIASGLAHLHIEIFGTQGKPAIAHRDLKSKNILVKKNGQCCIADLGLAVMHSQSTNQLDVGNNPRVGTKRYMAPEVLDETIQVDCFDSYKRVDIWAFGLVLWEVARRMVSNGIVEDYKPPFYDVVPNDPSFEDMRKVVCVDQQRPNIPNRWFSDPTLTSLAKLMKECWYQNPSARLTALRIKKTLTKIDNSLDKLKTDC
In kind it is biochemical. As to conditions: biochemical ALK5 IC50 / ALK2 IC50.

The next data set has as its target MNK2 (Homo sapiens, UniProt Q9HBH9). As to conditions: 1 μM; Run 1, Run 2.

Molecules are shown by their SMILES.

T1 sequence (Q08345 19-913): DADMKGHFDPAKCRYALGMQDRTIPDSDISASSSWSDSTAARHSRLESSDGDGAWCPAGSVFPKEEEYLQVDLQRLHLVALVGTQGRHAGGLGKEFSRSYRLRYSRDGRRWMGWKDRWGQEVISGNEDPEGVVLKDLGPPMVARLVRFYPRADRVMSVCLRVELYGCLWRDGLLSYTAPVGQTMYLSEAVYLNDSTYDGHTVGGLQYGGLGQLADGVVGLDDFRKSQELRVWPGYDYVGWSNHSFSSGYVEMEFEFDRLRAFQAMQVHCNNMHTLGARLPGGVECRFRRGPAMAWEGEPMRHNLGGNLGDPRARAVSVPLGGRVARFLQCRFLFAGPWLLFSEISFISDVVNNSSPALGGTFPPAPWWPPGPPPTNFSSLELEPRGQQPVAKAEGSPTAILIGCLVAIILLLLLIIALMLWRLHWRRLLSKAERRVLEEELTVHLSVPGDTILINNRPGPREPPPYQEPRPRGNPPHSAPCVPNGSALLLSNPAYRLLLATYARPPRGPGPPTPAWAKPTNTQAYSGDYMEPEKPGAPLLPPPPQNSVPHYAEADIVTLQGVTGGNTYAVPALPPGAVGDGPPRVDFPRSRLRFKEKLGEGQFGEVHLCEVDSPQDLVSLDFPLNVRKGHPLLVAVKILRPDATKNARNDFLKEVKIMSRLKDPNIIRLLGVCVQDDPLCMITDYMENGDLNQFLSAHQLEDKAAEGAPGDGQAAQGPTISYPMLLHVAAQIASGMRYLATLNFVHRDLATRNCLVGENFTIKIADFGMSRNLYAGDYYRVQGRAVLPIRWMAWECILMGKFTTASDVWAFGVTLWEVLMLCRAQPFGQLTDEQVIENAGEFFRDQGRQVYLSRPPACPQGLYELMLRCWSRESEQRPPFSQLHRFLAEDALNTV
Chain of MNK2 (Q9HBH9 whole entry): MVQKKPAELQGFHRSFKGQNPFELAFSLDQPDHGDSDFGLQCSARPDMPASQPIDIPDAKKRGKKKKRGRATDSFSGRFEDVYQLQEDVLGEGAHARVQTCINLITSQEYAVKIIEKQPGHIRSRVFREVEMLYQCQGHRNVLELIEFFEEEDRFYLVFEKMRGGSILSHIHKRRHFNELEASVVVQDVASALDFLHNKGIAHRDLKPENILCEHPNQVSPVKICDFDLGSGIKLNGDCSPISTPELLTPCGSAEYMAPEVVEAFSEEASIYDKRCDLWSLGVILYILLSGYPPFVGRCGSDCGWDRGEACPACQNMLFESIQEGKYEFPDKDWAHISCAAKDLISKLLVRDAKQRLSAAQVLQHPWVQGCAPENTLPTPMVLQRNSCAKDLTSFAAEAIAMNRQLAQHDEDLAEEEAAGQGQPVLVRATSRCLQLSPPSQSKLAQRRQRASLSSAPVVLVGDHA

Usually half-life stands for the time needed for the level to fall by half in the phase considered. Read a low half-life as rapid decline. For `COc1cc(-c2cncc(-c3ccc(N4CCN(C)CC4)cc3)c2C)cc(F)c1C(N)=O` [Compound 26a, 2-Fluoro-6-methoxy-4-(4-methyl-5-(4-(4-methylpiperazin-1-yl)phenyl)pyridin-3-yl)benzamide], the half-life at 24 h in “in vivo” is 2.56 h. Further, the “% enzyme activity” value on DDR1 (1 μM) came out at 31.23%. Also, the remaining activity at 1 µM on DDR1 (read-out: % enzyme activity, 1 μM) was 32.1%. Further, the “Fold Selectivity (ALK5/ALK2)” value at ALK2/ACVR1 is on record as 350.

Usually IC50 stands for the concentration at which inhibition is half-maximal. For `COc1cc(-c2cncc(-c3ccc(N4C[C@@H](C)N(C)[C@@H](C)C4)cc3)c2C)cc(F)c1C(N)=O` [Compound 26c, 2-Fluoro-6-methoxy-4-(4-methyl-5-(4-((3R,5S)-3,4,5-trimethylpiperazin-1-yl)phenyl)pyridin-3-yl)benzamide], the “% enzyme activity” value on MNK2 worked out at 68.28%. The IC50 with DLA ALK5 is more than 5 µM.
